“And” between values parts separate entries of the source, which are not always exact repeats. Equal values may be shown once. Inconclusive results and toxic doses are left out.
System: BDF1 mice, P388 leukemia ip, median survival T/C
Assay: NCI In Vivo Anticancer Drug Screen. Data for tumor model P388 Leukemia (intraperitoneal) in B6D2F1 (BDF1) mice
Settings: endpoint: median survival time, higher = longer survival
Outline: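 Antitumour effect was judged in vivo: survival in drug-treated mice, normalised to that of vehicle-dosed controls, gives the reported T/C.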

[1] = dose: 100.0 mg/kg/injection, schedule: Q04DX003 (ip), vehicle: Klucel (hydroxypropylcellulose) (HPC)
[2] = dose: 200.0 mg/kg/injection, schedule: Q01DX009 (ip), vehicle: Klucel (hydroxypropylcellulose) (HPC)
[3] = dose: 200.0 mg/kg/injection, schedule: Q04DX003 (ip), vehicle: Klucel (hydroxypropylcellulose) (HPC)
[4] = dose: 400.0 mg/kg/injection, schedule: Q01DX009 (ip), vehicle: Klucel (hydroxypropylcellulose) (HPC)
[5] = dose: 400.0 mg/kg/injection, schedule: Q04DX003 (ip), vehicle: Klucel (hydroxypropylcellulose) (HPC)
[6] = dose: 12.5 mg/kg/injection, schedule: Q04DX003 (ip), vehicle: saline
[7] = dose: 25.0 mg/kg/injection, schedule: Q04DX003 (ip), vehicle: saline
[8] = dose: 50.0 mg/kg/injection, schedule: Q01DX009 (ip), vehicle: saline with Tween-80
[9] = dose: 100.0 mg/kg/injection, schedule: Q01DX009 (ip), vehicle: saline with Tween-80
[10] = dose: 200.0 mg/kg/injection, schedule: Q01DX009 (ip), vehicle: saline with Tween-80
[11] = dose: 300.0 mg/kg/injection, schedule: Q01DX009 (ip), vehicle: saline with Tween-80
[12] = dose: 400.0 mg/kg/injection, schedule: Q01DX009 (ip), vehicle: saline with Tween-80
[13] = dose: 50.0 mg/kg/injection, schedule: Q04DX003 (ip), vehicle: saline with Tween-80

For `Cc1cc(C)cc(CCc2cc(C)cc(C)c2)c1`, the T/C [1] was 100 % of control, the T/C [2] was 109 % of control and the T/C [3] was 90 % of control. For the same compound, the T/C [4] was 100 % of control and the T/C [5] was 95 % of control.
In the case of `NC(CCl)=NC1CCCCC1`, the T/C [6] is reported as 102 % of control, the T/C (dose: 22.0 mg/kg/injection, schedule: Q04DX003 (ip), vehicle: saline) is reported as 121 % of control and the T/C [7] is reported as 117 % of control. For the same compound, the T/C (dose: 75.0 mg/kg/injection, schedule: Q04DX003 (ip), vehicle: saline) was 96 % of control and the T/C (dose: 100.0 mg/kg/injection, schedule: Q04DX003 (ip), vehicle: saline) was 88 % of control.
For `COc1cc2c3c(c1O)C1(C=CC(=O)C=C1)CC3N(C)CC2` (centres undefined), the T/C [8] was 112 % of control and the T/C [9] was 115 % of control.
For `CCCCCCCCCCCCN(C)C`, the T/C [6] was 104 % of control, the T/C [7] was 109 % of control and the T/C (dose: 50.0 mg/kg/injection, schedule: Q04DX003 (ip), vehicle: saline) was 118 % of control.
With `NNC(=O)c1cccc(N)c1` the T/C (dose: 25.0 mg/kg/injection, schedule: Q01DX009 (ip), vehicle: saline with Tween-80) was 100 % of control, the T/C [8] was 90 % of control and the T/C [9] was 100 % of control.
`COc1ccccc1N1C(=O)CC(Sc2ccccc2N)C1=O` (centres undefined) was tested, and the T/C [9] was 91 % of control, the T/C (dose: 132.0 mg/kg/injection, schedule: Q01DX009 (ip), vehicle: saline with Tween-80) was 95 % of control and the T/C [10] was 105 % of control. The T/C [11] was 105 % of control and the T/C [12] was 91 % of control.
In the case of `C=CC(=O)Oc1ccc(Cl)cc1`, the T/C (dose: 12.5 mg/kg/injection, schedule: Q04DX003 (ip), vehicle: saline with Tween-80) is reported as 100 % of control, the T/C (dose: 25.0 mg/kg/injection, schedule: Q04DX003 (ip), vehicle: saline with Tween-80) is reported as 104 % of control and the T/C [13] is reported as 118 % of control.
In the case of `C=CN1C(=O)N(C=C)C(C)(CC(C)C)C1=O` (centres undefined), the T/C [13] is reported as 104 % of control, the T/C (dose: 100.0 mg/kg/injection, schedule: Q04DX003 (ip), vehicle: saline with Tween-80) is reported as 109 % of control and the T/C (dose: 200.0 mg/kg/injection, schedule: Q04DX003 (ip), vehicle: saline with Tween-80) is reported as 100 % of control.
With `CCCCS(=N)(=O)CC[C@H](N)C(=O)O` (some centres undefined) the T/C (dose: 50.0 mg/kg/injection, schedule: Q01DX005 (ip), vehicle: saline) was 96 % of control, the T/C (dose: 100.0 mg/kg/injection, schedule: Q01DX005 (ip), vehicle: saline) was 96 % of control and the T/C (dose: 200.0 mg/kg/injection, schedule: Q01DX005 (ip), vehicle: saline) was 91 % of control. For the same compound, the T/C (dose: 400.0 mg/kg/injection, schedule: Q01DX005 (ip), vehicle: saline) was 91 % of control.
`CCOc1ccccc1NC1=C(OC)C(=O)C(Nc2ccccc2OCC)=C(OC)C1=O` was tested, and the T/C (dose: 100.0 mg/kg/injection, schedule: Q01DX009 (ip), vehicle: Klucel (hydroxypropylcellulose) (HPC)) was 100 % of control, the T/C [1] was 91 % of control and the T/C [2] was 95 % of control. For the same compound, the T/C [3] was 91 % of control and 100 % of control, the T/C [4] was 100 % of control and the T/C [5] was 86 % of control.
`C=CN1C(=O)NC(C)(CC(C)C)C1=O` (centres undefined) was tested, and the T/C [9] was 93 % of control, the T/C [10] was 104 % of control and the T/C [12] was 104 % of control.
In the case of `CN1C2Oc3ccccc3C1Oc1ccccc12`, the T/C [8] is reported as 112 % of control, the T/C [9] is reported as 99 % of control and the T/C [10] is reported as 99 % of control.
In the case of `CC(=O)C/C(C)=N\NC(=S)SCc1ccccc1`, the T/C (dose: 75.0 mg/kg/injection, schedule: Q01DX009 (ip), vehicle: saline with Tween-80) is reported as 90 % of control, the T/C (dose: 150.0 mg/kg/injection, schedule: Q01DX009 (ip), vehicle: saline with Tween-80) is reported as 97 % of control and the T/C [11] is reported as 92 % of control.
In the case of `CN[C@H]1CCc2cc(OC)c(OC)c(OC)c2-c2ccc(OC)c(=O)cc21`, the T/C (dose: 0.63 mg/kg/injection, schedule: Q01DX010 (ip), vehicle: saline) is reported as 104 % of control, the T/C (dose: 1.25 mg/kg/injection, schedule: Q01DX009 (ip), vehicle: saline) is reported as 117 % of control and the T/C (dose: 1.25 mg/kg/injection, schedule: Q01DX010 (ip), vehicle: saline) is reported as 122 % of control. The T/C (dose: 2.5 mg/kg/injection, schedule: Q01DX010 (ip), vehicle: saline) was 122 % of control, the T/C (dose: 5.0 mg/kg/injection, schedule: Q01DX010 (ip), vehicle: saline) was 150 % of control and the T/C (dose: 10.0 mg/kg/injection, schedule: Q01DX009 (ip), vehicle: saline) was 93 % of control.
